Earlier results on one molecule are cited in patent US20080254073A1, “Transdermal Patch Comprising Paroxetine” (IKSU PARMACEUTICAL CO., LTD., priority 2005, published 2008).

One may read the log P as the decadic logarithm of the partition coefficient of the neutral form, usually between octanol and water.

Experiment in data set [1]: not given
The source holds these as a separate data set.

Take `Fc1ccc([C@@H]2CCNC[C@H]2COc2ccc3c(c2)OCO3)cc1` [Paroxetine]: the “partition coefficient of the drug using octanol-water” value is recorded as 169.20±17.19. Where the note is “octanol-water”, the “log P” value is 2.23. Besides, the elimination half-life result in data set [1] (after multiple oral administration, healthy volunteers) is “about 24 hours”. In data set [1] (oral administration, healthy volunteers), the “time to reach maximum plasma concentration of the drug” value is on record as “about five”. Moreover, the “influence of food or antacid on absorption” value in data set [1] (oral, administered together with food or antacid) is reported as “not influenced by food or antacid”. In addition, in data set [1] (oral, differences among individuals), the “difference in the area under the plasma concentration-time curve (AUC)” value is recorded as “about 35 times”.
